Patent US10398703B2, “Therapeutic compounds and uses thereof” (Kala Pharmaceuticals, Inc., priority 2013, dated 2019)
Like-named read-outs stand apart in the source and are kept apart here.

Key:
[1] = Back of the eye drug exposure (PK) after topical instillation of compound MPP; assay type: in vivo; conditions: rabbit, topical or ocular, 50 μL of 0.5% MPP formulation, MPP 0.5%, 50 μL topical BID 5 days, Dutch-belted rabbits, 8 mm punch
Excerpt: Dutch-belted rabbits were used in these studies.
The portion of the retina and choroid collected and analyzed was an 8 mm round punch where the macula is located in humans.

[2] = Mobility of MPP nanoparticles in human cervicovaginal mucus (dark field microscopy); conditions: low pH of human cervicovaginal mucus
Description: In order to determine whether the generated nanoparticles have reduced interactions with mucins and are therefore able to move within mucus without becoming trapped, particles were incubated with human cervicovaginal mucus (CVM) and observed via dark field microscopy. In a typical experiment, […] of the nanoparticle suspension was added to 20 μl of CVM. Observations were made in a minimum of three distinct and randomly selected areas of the CVM sample. Control particles with known behavior were used to qualify the CVM sample as appropriate for the assay. For all compounds (except compound 55) listed in Table 4, mobility in mucus was observed and therefore the nanoparticles were deemed to be effective MPP.

[3] = choroid, read-out: AUC0-last Choroid
[4] = choroid, read-out: Cmax Choroid
[5] = retina, read-out: AUC0-last Retina

Compound | AUC(0-t) [1, 3] [µM·h] | Cmax [1, 4] [nM] | AUC(0-t) [1, 5] [µM·h] | Cmax ([1]; retina, read-out: Cmax Retina) [nM] | solubility in CVM [2]
COc1cc2c(Oc3ccc(NC(=O)Nc4cc(C)ccc4F)c(Cl)c3)ncnc2cc1OCCCN1CCC2(CC1)COC2 [Compound 12] | 2.45 | 265 | 0.308 | 39 | 
COc1cc2c(Oc3ccc(NC(=O)Nc4cc(C)on4)c(Cl)c3)ncnc2cc1OCCCN1CCC2(CC1)COC2 [Compound 9] | 5.4 | 693 | 0.915 | 110 | 
COc1cc2ncnc(Oc3ccc(NC(=O)Nc4ccc(CN5CCN(C)CC5)cc4)c(Cl)c3)c2cc1OC [Compound 55] |  |  |  |  | soluble in the low pH of CVM
COc1cc2c(Oc3ccc(NC(=O)Nc4cc(C)ccc4F)c(Cl)c3)ccnc2cc1OCCCN1CCC2(CC1)COC2 [Compound 25] | 5.79 | 574 | 0.297 | 33 | 
